Data reported in the supplement of paper PMC10307832.

Key:
Assay in all cases: relative viability (nuclei count vs DMSO), 5 days (fraction); higher = more cells survive
Metformin + Crizotinib = compound: CN(C)C(=N)NC(=N)N [Metformin] + C[C@@H](Oc1cc(-c2cnn(C3CCNCC3)c2)cnc1N)c1c(Cl)ccc(F)c1Cl [Crizotinib] (partner 1 µM)
Method in brief: (§1)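 Dosing by pin tool came one day after lung cancer cell lines were seeded in 1536-well plates, using either one drug or a fixed anchor-drug dose plus five library-drug doses (not always all listed) in √10 steps. After 5 days, nuclei were counted on 4× images. Relative viability is treated-well nuclei count divided by vehicle-well nuclei count, and values are medians of duplicate plates.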

Apatinib + Bortezomib = compound: N#CC1(c2ccc(NC(=O)c3cccnc3NCc3ccncc3)cc2)CCCC1 [Apatinib] + CC(C)C[C@H](NC(=O)[C@H](Cc1ccccc1)NC(=O)c1cnccn1)B(O)O [Bortezomib] (partner 0.002 µM)
Method in brief: as §1

Metformin + Palbociclib = compound: CN(C)C(=N)NC(=N)N [Metformin] + CC(=O)c1c(C)c2cnc(Nc3ccc(N4CCNCC4)cn3)nc2n(C2CCCC2)c1=O [Palbociclib] (partner 0.5 µM)
Method in brief: as §1

Apatinib + Vorinostat = compound: N#CC1(c2ccc(NC(=O)c3cccnc3NCc3ccncc3)cc2)CCCC1 [Apatinib] + O=C(CCCCCCC(=O)Nc1ccccc1)NO [Vorinostat] (partner 1 µM)
Method in brief: as §1

| Cell Line | relative viability (Metformin + Crizotinib; first compound 10 µM) | relative viability (Metformin + Crizotinib; first compound 31.62 µM) | relative viability (Metformin + Crizotinib; first compound 100 µM) | relative viability (Metformin + Crizotinib; first compound 316.23 µM) | relative viability (Metformin + Crizotinib; first compound 1000 µM) | relative viability (Apatinib + Bortezomib; first compound 0.08 µM) | relative viability (Apatinib + Bortezomib; first compound 0.253 µM) | relative viability (Apatinib + Bortezomib; first compound 0.8 µM) | relative viability (Apatinib + Bortezomib; first compound 2.53 µM) | relative viability (Apatinib + Bortezomib; first compound 8 µM) | relative viability (Metformin + Palbociclib; first compound 10 µM) | relative viability (Metformin + Palbociclib; first compound 31.62 µM) | relative viability (Metformin + Palbociclib; first compound 100 µM) | relative viability (Metformin + Palbociclib; first compound 316.23 µM) | relative viability (Metformin + Palbociclib; first compound 1000 µM) | relative viability (Apatinib + Vorinostat; first compound 0.08 µM) | relative viability (Apatinib + Vorinostat; first compound 0.253 µM) | relative viability (Apatinib + Vorinostat; first compound 0.8 µM) | relative viability (Apatinib + Vorinostat; first compound 2.53 µM) | relative viability (Apatinib + Vorinostat; first compound 8 µM) |
| --- | --- | --- | --- | --- | --- | --- | --- | --- | --- | --- | --- | --- | --- | --- | --- | --- | --- | --- | --- | --- |
| RERF-LC-KJ | 0.802 | 0.739 | 0.718 | 0.424 | 0.74 | 1.03 | 0.99 | 1.04 | 1.05 | 1.05 | 0.907 | 1.04 | 0.896 | 0.823 | 0.993 | 0.625 | 0.72 | 0.63 | 0.695 | 0.577 |
| NCI-H647 | 0.982 | 1.02 | 0.955 | 0.939 | 0.942 | 1.27 | 1.33 | 1.01 | 0.736 | 0.823 | 0.222 | 0.436 | 0.555 | 0.382 | 0.417 | 0.596 | 0.868 | 0.473 | 0.669 | 0.343 |
| NCI-H1395 | – | – | – | – | – | – | – | – | – | – | 0.504 | 0.716 | 0.627 | 0.508 | 0.448 | 0.772 | 0.815 | 0.64 | 0.535 | 0.605 |
| NCI-H522 | – | – | – | – | – | – | – | – | – | – | 1.7 | 1.24 | 1.06 | 1.08 | 1.21 | 1.02 | 1.02 | 0.875 | 0.672 | 0.816 |
| NCI-H322M | 0.884 | 1.01 | 0.958 | 0.854 | 0.78 | 1.23 | 1.19 | 1.05 | 1.24 | 1.25 | 0.54 | 0.495 | 0.512 | 0.551 | 0.488 | 0.846 | 0.846 | 0.885 | 0.897 | 0.885 |
| H3255 | 0.754 | 0.934 | 0.809 | 0.84 | 0.384 | 0.729 | 0.791 | 0.657 | 0.612 | 0.723 | 0.309 | 0.35 | 0.307 | 0.309 | 0.321 | 0.768 | 0.737 | 0.764 | 0.74 | 0.794 |
| 201T | – | 1.04 | 1.07 | 0.965 | 1 | 1.07 | 1.07 | 1.1 | 1.11 | 1.08 | – | 0.376 | 0.397 | 0.329 | 0.382 | 0.724 | 0.918 | 0.898 | 0.969 | 0.966 |
| SW 1573 | 0.892 | 0.849 | 0.866 | 0.706 | 0.815 | 1.15 | 1.04 | 0.982 | 1.05 | 0.944 | 0.378 | 0.364 | 0.321 | 0.252 | 0.264 | 0.993 | 1.07 | 0.702 | 0.47 | 0.446 |
| NCI-H2170 | 1.09 | 1.14 | 1.19 | 1.02 | 1.19 | – | – | – | – | – | 0.334 | 0.389 | 0.386 | 0.354 | 0.391 | 0.881 | 0.751 | 0.792 | 0.718 | 0.775 |
| NCI-H1993 | 1.12 | 0.849 | 1.22 | 1.06 | 1.31 | 1.2 | 1.11 | 0.781 | 1 | 1.07 | 0.63 | 0.701 | 0.739 | 0.576 | 0.67 | 0.804 | 0.726 | 0.948 | 0.788 | 0.727 |
| NCI-H1755 | 0.677 | 0.792 | 0.744 | 0.756 | 0.753 | 1.02 | 0.959 | 0.94 | 0.945 | 0.925 | 0.411 | 0.397 | 0.43 | 0.433 | 0.416 | 0.846 | 0.7 | 0.783 | 0.705 | 0.586 |
| NCI-H1437 | 0.931 | 0.918 | 0.935 | 0.898 | 0.902 | 0.52 | 0.526 | 0.461 | 0.434 | 0.439 | 0.384 | 0.459 | 0.439 | 0.389 | 0.4 | 0.854 | 0.928 | 0.71 | 0.554 | 0.534 |
| EPLC-272H | 1.07 | 1.03 | 0.874 | 0.918 | 1.06 | 1.04 | 0.905 | 0.806 | 0.738 | 0.666 | 0.294 | 0.32 | 0.339 | 0.311 | 0.391 | 0.532 | 0.372 | 0.396 | 0.346 | 0.256 |
| LK-2 | 0.228 | 0.214 | 0.234 | 0.176 | 0.245 | – | – | – | – | – | 0.86 | 0.837 | 0.706 | 0.718 | 0.877 | 0.267 | 0.269 | 0.248 | 0.145 | 0.228 |
| NCI-H1975 | 1.09 | 1.12 | 1.21 | 1.06 | 1.27 | 0.466 | 0.417 | 0.314 | 0.323 | 0.388 | 0.438 | 0.682 | 0.584 | 0.591 | 0.644 | 0.761 | 0.696 | 0.641 | 0.634 | 0.557 |
| HARA | 1.13 | 1.09 | 1.15 | 1.01 | 1.08 | 1.14 | 1.07 | 1.14 | 0.992 | 1.18 | 0.323 | 0.297 | 0.442 | 0.279 | 0.394 | 0.599 | 0.556 | 0.523 | – | 0.51 |
| SK-MES-1 | 0.884 | 0.893 | 0.925 | 0.784 | 0.932 | – | – | – | – | – | 0.248 | 0.205 | 0.266 | 0.204 | 0.232 | 1.18 | 1.14 | 1.04 | 0.961 | 0.928 |
| NCI-H2405 | 0.815 | 0.93 | 0.97 | 0.89 | 0.854 | 0.891 | 0.99 | 0.961 | 0.954 | 0.961 | – | 0.498 | 0.485 | 0.487 | 0.344 | 1.21 | 1.15 | 1.06 | 0.951 | 1.03 |
